“And” between values parts separate entries of the source, which are not always exact repeats. Equal values may be shown once.
Key:
[1] = instrument: DT, single field, calibrated with ESI Low Concentration Tuning Mix (Agilent)
[2] = instrument: TW, calibrated with polyalanine and drug standards

collision cross section (N2) ([1]; [M-H]-)	collision cross section (N2) ([1]; [M+H]+)	collision cross section (N2) ([2]; [M+H]+)	Structure (SMILES)	also measured
124.4 Å²	136.1 Å²	–	O=C(O)C(O)COP(=O)(O)O (stereo not drawn) [3-PHOSPHOGLYCERATE]	collision cross section (N2) ([1]; [M+Na-2H]-): 133 Å² and 141.6 Å²; collision cross section (N2) ([1]; [M+Na]+): 139.4 Å²
130.8 Å²	–	–	CC(=O)NCCCC(=O)O [4-ACETAMIDOBUTANOATE]	collision cross section (N2) ([1]; [M+Na]+): 135.7 Å²
–	130 Å²	–	NC(N)=NCCCC(=O)O [4-GUANIDINOBUTANOATE]	–
118.2 Å²	–	–	O=Cc1ccc(O)cc1 [4-HYDROXYBENZALDEHYDE]	–
121.2 Å²	–	–	O=C(O)c1ccc([O-])cc1 [4-HYDROXYBENZOATE]	–
–	130.7 Å²	–	NCC(=O)CCC(=O)O [5-AMINOLEVULINATE]	–
143.6 Å²	–	–	O=C(O)[C@H](O)[C@@H](O)[C@H](O)[C@H](O)COP(=O)(O)O [6-PHOSPHOGLUCONATE]	collision cross section (N2) ([1]; [M+Na-2H]-): 148.9 Å²; collision cross section (N2) ([1]; [M+Na]+): 157.6 Å²
169.4 Å²	168.1 Å²	–	Nc1ncnc2c1ncn2C1OC(CO)C2OP(=O)(O)OC21 (stereo not drawn) [ADENOSINE 2',3'-CYCLIC PHOSPHATE]	collision cross section (N2) ([1]; [M+H2O-H]-): 173.5 Å²; collision cross section (N2) ([1]; [M+Na]+): 175.1 Å² and 181 Å²
183.7 Å²	187 Å²	–	Nc1ncnc2c1ncn2[C@@H]1O[C@H](COP(=O)(O)OP(=O)(O)O)[C@@H](O)[C@H]1O [ADENOSINE 5'-DIPHOSPHATE]	collision cross section (N2) ([1]; [M+Na-2H]-): 187.7 Å²; collision cross section (N2) ([1]; [M+Na]+): 193.1 Å²
125.5 Å²	–	–	NC(=O)NC1NC(=O)NC1=O (stereo not drawn) [ALLANTOIN]	collision cross section (N2) ([1]; [M+Na]+): 142.2 Å²
129.9 Å²	134.6 Å²	–	NC(CCCC(=O)O)C(=O)O (stereo not drawn) [AMINOADIPATE]	collision cross section (N2) ([1]; [M+Na-2H]-): 134 Å²; collision cross section (N2) ([1]; [M+Na]+): 139.2 Å²
185.1 Å²	–	–	CCCCCCCCCCCCCCCCCCCC(=O)O [ARACHIDATE]	–
121.9 Å²	–	–	NC(=O)C[C@H](N)C(=O)O [ASPARAGINE]	collision cross section (N2) ([1]; [M+Na]+): 129.5 Å²
–	–	173.2 Å²	CC(=O)Nc1ccc(S(=O)(=O)Nc2ccc([N+](=O)[O-])cc2)cc1 [SULFANITRAN]	–
–	–	170 Å²	Nc1ccc(S(=O)(=O)Nc2ccnn2-c2ccccc2)cc1 [SULFAPHENAZOLE]	–
–	–	197.3 Å²	CCCCCCCCNC(C)C(O)c1ccc(SC(C)C)cc1 (stereo not drawn) [SULOCTIDIL]	–

collision cross section (N2) ([1]; [M-H]-)	collision cross section (N2) ([1]; [M+H]+)	collision cross section (N2) ([2]; [M+H]+)	Structure (SMILES)	also measured
–	–	137.7 Å²	c1ccc2[nH]c(-c3cscn3)nc2c1 [THIABENDAZOLE]	–
–	–	155.9 Å²	Cc1ncc(C[n+]2csc(CCO)c2C)c(N)n1 [THIAMINE]	–
–	–	170.7 Å²	CS(=O)(=O)c1ccc([C@@H](O)[C@@H](CO)NC(=O)C(Cl)Cl)cc1 [THIAMPHENICOL]	–
–	–	310.2 Å²	CC[C@H]1OC(=O)C[C@@H](O)[C@H](C)[C@@H](O[C@@H]2O[C@H](C)[C@@H](O)[C@H](N(C)C)[C@H]2O)[C@@H](CCN2C[C@H](C)C[C@H](C)C2)C[C@@H](C)C(=O)/C=C/C(C)=C/[C@@H]1CO[C@@H]1O[C@H](C)[C@@H](O)[C@@H](OC)[C@H]1OC [TILMICOSIN]	–
–	–	155.6 Å²	Cc1c(Cl)cccc1Nc1ccccc1C(=O)O [TOLFENAMIC ACID]	–
–	–	173.6 Å²	Cc1cccc(N(C)C(=S)Oc2ccc3ccccc3c2)c1 [TOLNAFTATE]	–
–	–	186.8 Å²	C[C@]12C=CC(=O)C=C1CC[C@H]1[C@@H]3C[C@@H](O)[C@](O)(C(=O)CO)[C@@]3(C)C[C@H](O)[C@@]12F [TRIAMCINOLONE]	–
–	–	164.5 Å²	COc1cc(C(=O)N2CCOCC2)cc(OC)c1OC [TRIMETOZINE]	–
–	–	169.5 Å²	CCN(Cc1ccncc1)C(=O)C(CO)c1ccccc1 (stereo not drawn) [TROPICAMIDE]	–
–	–	307.8 Å²	CC[C@H]1OC(=O)C[C@@H](O)[C@H](C)[C@@H](O[C@@H]2O[C@H](C)[C@@H](O[C@H]3C[C@@](C)(O)[C@@H](O)[C@H](C)O3)[C@H](N(C)C)[C@H]2O)[C@@H](CC=O)C[C@@H](C)C(=O)/C=C/C(C)=C/[C@@H]1CO[C@@H]1O[C@H](C)[C@@H](O)[C@@H](OC)[C@H]1OC [TYLOSIN]	–
–	–	159.4 Å²	COc1ccc(C(=O)CC(=O)O)c2c1C=CC(C)(C)O2 [URSINOIC ACID]	–
–	–	165.9 Å²	CC(=O)CC(c1ccccc1)c1c(O)c2ccccc2oc1=O (stereo not drawn) [WARFARIN]	–
–	–	131.1 Å²	Nc1nc(=O)c2[nH]c(=O)cnc2[nH]1 [XANTHOPTERIN]	–
–	–	137.7 Å²	O=C(O)c1cc(=O)c2cccc(O)c2[nH]1 [XANTHURENIC ACID]	–
–	–	181.7 Å²	O=C(O)[C@@H]1[C@H]2C[C@H]3c4[nH]c5ccccc5c4CCN3C[C@@H]2CC[C@@H]1O [YOHIMBIC ACID]	–

Continued, compound first:

Structure (SMILES)	collision cross section (N2) ([1]; [M-H]-)	collision cross section (N2) ([1]; [M+H]+)	collision cross section (N2) ([2]; [M+H]+)	also measured
NC1(C(=O)[O-])CC1 [1-AMINOCYCLOPROPANECARBOXYLATE]	135.1 Å²	–	–	–
Cn1cnc(C[C@H](N)C(=O)O)c1 [1-METHYL-L-HISTIDINE]	–	133.4 Å²	–	collision cross section (N2) ([1]; [M+Na]+): 138.4 Å²
NCC(N)C(=O)O (stereo not drawn) [2,3-DIAMINOPROPIONATE]	118.2 Å²	138.1 Å²	–	–
O=C(O)c1cccc(O)c1[O-] [2,3-DIHYDROXYBENZOATE]	120.6 Å²	–	–	–
O=c1[nH]c(=O)c2nccnc2[nH]1 [2,4-DIHYDROXYPTERIDINE]	125.3 Å²	132.4 Å²	–	collision cross section (N2) ([1]; [M+Na]+): 143.8 Å²
O=C(O)c1cc(O)ccc1[O-] [2,5-DIHYDROXYBENZOATE]	124.6 Å²	–	–	–
O=C(O)Cc1ccccc1O [2-HYDROXYPHENYLACETATE]	130.1 Å²	–	–	–
O=C(O)c1ccc2ccccc2n1 [2-QUINOLINECARBOXYLATE]	–	132 Å²	–	–
O=C(O)Cc1ccc(O)c(O)c1 [3,4-DIHYDROXYPHENYLACETATE]	–	–	–	collision cross section (N2) ([1]; [M+Na-2H]-): 139.9 Å²
OCC(O)c1ccc(O)c(O)c1 (stereo not drawn) [3,4-DIHYDROXYPHENYLGLYCOL]	–	–	–	collision cross section (N2) ([1]; [M-H2O-H]-): 127.5 Å²
N[C@@H](Cc1cc(I)c(O)c(I)c1)C(=O)O [3,5-DIIODO-L-TYROSINE]	159.3 Å²	171.1 Å²	–	collision cross section (N2) ([1]; [M+Na]+): 165.2 Å²
Nc1cc(C(=O)O)ccc1[O-] [3-AMINO-4-HYDROXYBENZOATE]	125.7 Å²	139.6 Å²	–	–
CC(C)(COP(=O)(O)OP(=O)(O)OC[C@H]1O[C@@H](n2cnc3c(N)ncnc32)[C@H](O)[C@@H]1OP(=O)(O)O)[C@@H](O)C(=O)NCCC(=O)NCCSC(=O)C[C@@](C)(O)CC(=O)O [3-HYDROXY-3-METHYLGLUTARYL-COA]	261.9 Å²	265.4 Å²	–	collision cross section (N2) ([1]; [M+Na-2H]-): 267.3 Å²; collision cross section (N2) ([1]; [M+Na]+): 266.2 Å²
Nc1c(O)cccc1C(=O)O [3-HYDROXYANTHRANILATE]	127.8 Å²	131.2 Å²	–	–
COc1cc(CCN)ccc1O [3-METHOXYTYRAMINE]	–	146.7 Å²	–	–
CC(C)=CC(=O)SCCNC(=O)CCNC(=O)C(O)C(C)(C)COP(=O)(O)OP(=O)(O)OC[C@H]1O[C@@H](n2cnc3c(N)ncnc32)[C@H](O)[C@@H]1OP(=O)(O)O (stereo partly drawn) [3-METHYLCROTONYL-COA]	256.7 Å²	256.1 Å²	–	collision cross section (N2) ([1]; [M+Na-2H]-): 266.9 Å²
N[C@@H](Cc1ccc(O)c([N+](=O)[O-])c1)C(=O)O [3-NITRO-L-TYROSINE]	148.9 Å²	158.2 Å²	–	collision cross section (N2) ([1]; [M+Na-2H]-): 147.7 Å²; collision cross section (N2) ([1]; [M+Na]+): 154.5 Å²
NCCc1cc(O)c(O)cc1O [6-HYDROXYDOPAMINE]	–	143 Å²	–	–
O=C(O)c1ccc(=O)[nH]c1 [6-HYDROXYNICOTINATE]	–	128.9 Å²	–	–
OC[C@H]1OC(O)[C@H](O)[C@H](O)[C@@H]1O (stereo partly drawn) [ALLOSE]	–	–	–	collision cross section (N2) ([1]; [M+Na]+): 143.2 Å² and 146.2 Å²
Nc1ccccc1C(=O)O [ANTHRANILATE]	125.5 Å²	–	–	–
C[N+](C)(C)CC(=O)[O-] [BETAINE]	–	–	–	collision cross section (N2) ([1]; [M+K]+): 130.5 Å²
COP(=S)(OC)Oc1ccc(Sc2ccc(OP(=S)(OC)OC)cc2)cc1 [TEMEFOS]	–	–	203.3 Å² and 187.6 Å²	–
COc1cc([C@@H]2c3cc4c(cc3[C@@H](O[C@@H]3O[C@@H]5CO[C@@H](c6cccs6)O[C@H]5[C@H](O)[C@H]3O)[C@H]3COC(=O)[C@H]23)OCO4)cc(OC)c1O [TENIPOSIDE]	–	–	–	collision cross section (N2) ([2]; [M+Na]+): 266.1 Å²
CC(C)=CCCC1(C)C=Cc2c(O)c3c(c(CC=C(C)C)c2O1)OC12C(CC4CC1C(C)(C)OC2(C/C=C(/C)C(=O)O)C4O)C3=O (stereo not drawn) [TETRAHYDROGAMBOGIC ACID]	–	–	246.4 Å²	–
CN(C)C(=S)SSC(=S)N(C)C [THIRAM]	–	–	148.4 Å²	–
CC1(C)O[C@@H]2[C@@H](CO[C@@]3(COS(N)(=O)=O)OC(C)(C)O[C@@H]23)O1 [TOPIRAMATE]	–	–	–	collision cross section (N2) ([2]; [M+Na]+): 170.1 Å²
COc1ccc(C(CN(C)C)C2(O)CCCCC2)cc1 (stereo not drawn) [VENLAFAXINE]	–	–	169.9 Å²	–
CC(C)CC1C(=O)N2CCCC2C2(O)OC(NC(=O)C3C=C4c5cccc6[nH]cc(c56)CC4N(C)C3)(C(C)C)C(=O)N12 (stereo not drawn) [alpha-ERGOCRYPTINE]	–	–	236.1 Å²	–
